In patent publication US12122750B2, “AT2R antagonists and uses thereof” (Eli Lilly and Company, priority 2022, dated 2024):

target: recombinant human angiotensin-II receptor subtype 2 (hAT2R) (Homo sapiens (Human), UniProt P50052); test: Competitive radioligand binding assay (SPA), hAT2R HEK293 membranes; conditions: [125I]-Tyr4-Angiotensin-II, read-out: AT2R Ki
Procedure: Compound Solubilization Test and reference compounds were received as dry powder reagents, weighed, and solubilized in 100% DMSO to generate a working stock concentration of 10 mM. Membrane Preparation Protocol (hAT2R HEK293 and rAT2R HEK293) hAT2R membranes were prepared from human embryonic kidney (HEK293) cells which were stably transfected with recombinant human angiotensin-II receptor subtype 2 (hAT2R). Cells from the stable cell lines were expanded in tissue culture flasks to generate a large population of cells; cell pellet (>1 gm), and these cell pellets were stored frozen prior to initiating this membrane isolation procedure for each receptor isoform. Frozen cell pellets were thawed in ice-cold homogenization/resuspension buffer (50 mM Tris-HCl, pH 7.5) containing one Complete© protease inhibitor tablet with EDTA (Roche Diagnostics) per 50 mL buffer, and cell pellet was resuspended at a ratio of 10 mL homogenization buffer to gram of starting cell pellet. Cell suspension was homogenized with an overhead motor-driven Teflon-glass homogenizer using 15 to 20 strokes, followed by centrifugation at 1100×g for 10 minutes at 4° C. The supernatant was saved on ice, pellets were homogenized as before, and centrifuged at 1100×g for 10 minutes at 4° C. Both supernatants were combined and subsequently centrifuged at 35,000×g for 60 minutes at 4° C. The final centrifugation pellet (pellet 2) containing the isolated membranes was resuspended in buffer (4 to 5 mL/g of starting cell paste) containing protease inhibitors and quick frozen in liquid nitrogen prior to storage at -80° C. Protein concentration was determined using a BCA kit (ThermoScientific, Inc.) with bovine serum albumin (BSA) as standard. […] The assays were performed with a scintillation proximity assay (SPA) method using polyvinyltoluene (PVT) wheat germ agglutinin-coupled SPA beads (Perkin Elmer Cat. #RPNQ0001). Assay buffer containing BSA (50 mM Tris-HCl, pH 7.5, 150 mM NaCl, 0.1% w/v fatty-acid free BSA) was used for preparing radioligand, membrane and SPA bead reagent dilution to working stock concentrations. Reference control and test compounds were diluted to obtain ten-point concentration response curves using a four-fold serial dilution protocol onto assay plates, dispensed acoustically from DMSO stock using automated ECHO instrument technology (Labcyte, Inc.). Concentration response curves were routinely generated with the highest final assay concentration for the reference angiotensin-II control at 50 nM, and the highest final assay concentration for the test compounds at 50 μM. […] The hAT2R membrane was combined with PVT-WGA SPA beads to obtain a final assay concentration of 0.25 μg/well hAT2R membrane+0.1 mg/well PVT-WGA SPA bead. And the hAT1R membrane PVT-WGA SPA bead final concentrations was 0.5 μg/well hAT1R membrane+0.1 mg/well PVT-WGA SPA bead. […] For all assays, radioligand addition was followed by the addition of membrane-SPA bead mixture, i.e., the hAT2R membrane-SPA bead mixture (30 μL), the rAT2R membrane-SPA bead mixture, or the AT1R membrane-SPA bead mixture (30 μL) into the assay plate. All dispensing steps were added using a Multiflo FX (Biotek, Inc.) bulk dispensing instrument. After reagent addition steps, assay plates were sealed, and plate contents mixed for one minute on a benchtop micro-plate shaker. Following a 10-hour incubation at room temperature to allow for bead settling and radioligand binding, bound radioactivity was quantitated using a Microbeta Trilux scintillation counter (Perkin Elmer) and expressed as counts per minute (CPM). The unlabeled angiotensin-II control was included on each plate as an experimental assay reference. […] Data Analysis Procedures Compounds were tested in a 10-point concentration response curve (CRC) format, with each plate containing the positive control angiotensin-II positive reference compound, and experimental compounds.

recombinant human angiotensin-II receptor subtype 2 (hAT2R), sequence (P50052 whole entry): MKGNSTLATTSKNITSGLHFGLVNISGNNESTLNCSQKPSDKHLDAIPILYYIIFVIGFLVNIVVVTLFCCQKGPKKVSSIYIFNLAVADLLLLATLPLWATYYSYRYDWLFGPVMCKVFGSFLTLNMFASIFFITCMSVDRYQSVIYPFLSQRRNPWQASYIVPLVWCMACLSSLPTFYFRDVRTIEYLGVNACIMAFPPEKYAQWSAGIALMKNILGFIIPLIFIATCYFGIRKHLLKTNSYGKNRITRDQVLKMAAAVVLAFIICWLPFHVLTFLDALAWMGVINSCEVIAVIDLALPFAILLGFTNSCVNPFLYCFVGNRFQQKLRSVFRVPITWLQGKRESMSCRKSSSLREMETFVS

Row | Compound | Ki [nM]
1 | CC(C1CC1)N(C(=O)CC1(C(=O)O)CCN(C(=O)N(C)c2ccc(F)cc2)CC1)c1ccccc1 (single isomer, unassigned) [Example 43B, 4-[2-[N-(1-cyclopropylethyl)anilino]-2-oxo-ethyl]-1-[(4-fluorophenyl)-methyl-carbamoyl]piperidine-4-carboxylic acid] | 20.1
2 | CN(C(=O)N1CCC(CC(=O)N(c2ccccc2)C2CCCOC2)(C(=O)O)CC1)c1ccc(C2CC2)cc1 (single isomer, unassigned) [Example 45A, 1-[(4-cyclopropylphenyl)-methyl-carbamoyl]-4-[2-oxo-2-(N-tetrahydropyran-3-ylanilino)ethyl]piperidine-4-carboxylic acid] | 1.55
3 | CN(C(=O)N1CCC(CC(=O)N(c2ccccc2)C2CCCOC2)(C(=O)O)CC1)c1ccc(C2CC2)cc1 (single isomer, unassigned) [Example 45B, 1-[(4-cyclopropylphenyl)-methyl-carbamoyl]-4-[2-oxo-2-(N-tetrahydropyran-3-ylanilino)ethyl]piperidine-4-carboxylic acid] | 2.68
4 | O=C(N1CCC(CC(=O)N(c2ccccc2)C2CCCC(F)(F)C2)(C(=O)O)CC1)N1CCc2ccc(F)cc21 (single isomer, unassigned) [Example 72A, 4-[2-(N-(3,3-difluorocyclohexyl)anilino)-2-oxo-ethyl]-1-(6-fluoroindoline-1-carbonyl)piperidine-4-carboxylic acid] | 8.14
5 | O=C(N1CCC(CC(=O)N(c2ccccc2)C2CCCC(F)(F)C2)(C(=O)O)CC1)N1CCc2ccc(F)cc21 (single isomer, unassigned) [Example 72B, 4-[2-(N-(3,3-difluorocyclohexyl)anilino)-2-oxo-ethyl]-1-(6-fluoroindoline-1-carbonyl)piperidine-4-carboxylic acid] | 0.383
6 | CC(C)(C)OC(=O)N1CCC(CC(=O)N(c2ccccc2)C2CCCC(F)(F)C2)(C(=O)O)CC1 (single isomer, unassigned) [compound 42] | 3.94
7 | CCCCCn1c(Br)nnc1N1CCC(CC(=O)N(c2ccccc2)c2ccccc2)(C(=O)O)CC1 [Example 4, 1-(5-bromo-4-pentyl-1,2,4-triazol-3-yl)-4-[2-oxo-2-(N-phenylanilino)ethyl]piperidine-4-carboxylic acid] | 5.13
8 | O=C(CC1(C(=O)O)CCN(c2ncncc2C2CC2)CC1)N(c1ccccc1)c1ccccc1 [Example 5, 1-(5-cyclopropylpyrimidin-4-yl)-4-(2-(diphenylamino)-2-oxoethyl)piperidine-4-carboxylic acid] | 9.15
9 | O=C(N1CCC(CC(=O)N(c2ccccc2)C2CCCCC2)(C(=O)O)CC1)N1CCc2ccccc21 [Example 6, 4-[2-(N-cyclohexylanilino)-2-oxo-ethyl]-1-(indoline-1-carbonyl)piperidine-4-carboxylic acid] | 9.08
10 | CN(C(=O)N1CCC(CC(=O)N(c2ccccc2)C2CCC(F)(F)CC2)(C(=O)O)CC1)c1ccc(F)cc1 [Example 8, 4-[2-(N-(4,4-difluorocyclohexyl)anilino)-2-oxo-ethyl]-1-[(4-fluorophenyl)-methyl-carbamoyl]piperidine-4-carboxylic acid] | 3.02
11 | CN(C(=O)N1CCC(CC(=O)N(c2ccccc2)C2CCCC2)(C(=O)O)CC1)c1ccc(F)cc1 [Example 9, 4-[2-(N-cyclopentylanilino)-2-oxo-ethyl]-1-[(4-fluorophenyl)-methyl-carbamoyl]piperidine-4-carboxylic acid] | 2.62
12 | CN(C(=O)N1CCC(CC(=O)N(c2ccccc2)C2CCCCC2)(C(=O)O)CC1)c1ccccc1F [Example 12, 4-[2-(N-cyclohexylanilino)-2-oxo-ethyl]-1-[(2-fluorophenyl)-methyl-carbamoyl]piperidine-4-carboxylic acid] | 0.521
13 | Cc1ccc(N(C)C(=O)N2CCC(CC(=O)N(c3ccccc3)C3CCCCC3)(C(=O)O)CC2)cc1 [Example 13, 4-[2-(N-cyclohexylanilino)-2-oxo-ethyl]-1-[methyl(p-tolyl)carbamoyl]piperidine-4-carboxylic acid] | 1.44
14 | COc1ccc(N(C)C(=O)N2CCC(CC(=O)N(c3ccccc3)C3CCCCC3)(C(=O)O)CC2)cc1 [Example 14, 4-[2-(N-cyclohexylanilino)-2-oxo-ethyl]-1-[(4-methoxyphenyl)-methyl-carbamoyl]piperidine-4-carboxylic acid] | 2.58
15 | CCN(C(=O)N1CCC(CC(=O)N(c2ccccc2)C2CCCCC2)(C(=O)O)CC1)c1ccc(F)cc1 [Example 15, 4-[2-(N-cyclohexylanilino)-2-oxo-ethyl]-1-[ethyl-(4-fluorophenyl)carbamoyl]piperidine-4-carboxylic acid] | 1.69
16 | O=C(CC1(C(=O)O)CCN(C(=O)N(c2ccc(F)cc2)C2CC2)CC1)N(c1ccccc1)C1CCCCC1 [Example 16, 4-[2-(N-cyclohexylanilino)-2-oxo-ethyl]-1-[cyclopropyl-(4-fluorophenyl)carbamoyl]piperidine-4-carboxylic acid] | 1.76
17 | CN(C(=O)N1CCC(CC(=O)N(c2ccccc2)C2CCOCC2)(C(=O)O)CC1)c1ccc(C2CC2)cc1 [Example 26, 1-[(4-cyclopropylphenyl)-methyl-carbamoyl]-4-[2-oxo-2-(N-tetrahydropyran-4-ylanilino)ethyl]piperidine-4-carboxylic acid] | 5.39
18 | N#Cc1ccc2c(c1)N(C(=O)N1CCC(CC(=O)N(c3ccccc3)C3CCCCC3)(C(=O)O)CC1)CC2 [Example 33, 1-(6-cyanoindoline-1-carbonyl)-4-[2-(N-cyclohexylanilino)-2-oxo-ethyl]piperidine-4-carboxylic acid] | 1.94
19 | Cc1ccccc1N(C(=O)CC1(C(=O)O)CCN(C(=O)N(C)c2ccc(F)cc2)CC1)c1ccccc1 [Example 37, 1-[(4-fluorophenyl)-methyl-carbamoyl]-4-[2-[N-(o-tolyl)anilino]-2-oxo-ethyl]piperidine-4-carboxylic acid] | 0.987
20 | CC(C)N(C(=O)N1CCC(CC(=O)N(c2ccccc2)c2ccccc2F)(C(=O)O)CC1)c1ccc(F)cc1 [Example 38, 4-[2-(N-(2-fluorophenyl)anilino)-2-oxo-ethyl]-1-[(4-fluorophenyl)-isopropyl-carbamoyl]piperidine-4-carboxylic acid] | 6.46
21 | O=C(CC1(C(=O)O)CCN(C(=O)N(c2ccc(F)cc2)C2CC2)CC1)N(c1ccccc1)c1ccccc1 [Example 39, 1-[cyclopropyl-(4-fluorophenyl)carbamoyl]-4-[2-oxo-2-(N-phenylanilino)ethyl]piperidine-4-carboxylic acid] | 2.82
22 | O=C(CC1(C(=O)O)CCN(C(=O)N(c2ccc(F)cc2)C2CC2)CC1)N(c1ccccc1)c1ccccc1F [Example 40, 1-[cyclopropyl-(4-fluorophenyl)carbamoyl]-4-[2-(N-(2-fluorophenyl)anilino)-2-oxo-ethyl]piperidine-4-carboxylic acid] | 1.37
23 | CN(C(=O)N1CCC(CC(=O)N(c2ccccc2F)c2ccccc2F)(C(=O)O)CC1)c1ccccc1 [Example 46, 4-[2-(2-fluoro-N-(2-fluorophenyl)anilino)-2-oxo-ethyl]-1-[methyl(phenyl)carbamoyl]piperidine-4-carboxylic acid] | 0.409
24 | O=C(CC1(C(=O)O)CCN(c2ccccc2)CC1)N(c1ccccc1)C1CCCCC1 [Example 48, 4-[2-(N-cyclohexylanilino)-2-oxo-ethyl]-1-phenyl-piperidine-4-carboxylic acid] | 3.59
25 | O=C(CC1(C(=O)O)CCN(c2ccccn2)CC1)N(c1ccccc1)C1CCCCC1 [Example 49, 4-[2-(N-cyclohexylanilino)-2-oxo-ethyl]-1-(2-pyridyl)piperidine-4-carboxylic acid] | 5.21
